Results from patent US8742100B2, “Small molecule inhibitors of isoprenylcysteine carboxyl methyltransferase with potential anticancer activity” (National University of Singapore, priority 2009, dated 2014).
Where two headings read alike, the source gives them in different places. Each block holds one compound with its values, some of them ahead of it.

Tests used:
[1] = Binding to fetal bovine serum (plasma protein binding), centrifugal filter device, HPLC; format: in vitro ADME; conditions: bovine, 5% w/v fetal bovine serum in phosphate buffered saline; for fraction unbound at 30 min, 1 µM / fraction unbound at 30 min, 4 µM / fraction unbound at 30 min, 10 µM / fraction unbound at 30 min, 25 µM: 5% fetal bovine serum in PBS; for fraction unbound at 30 min: all conc (1, 4, 10, 25 uM), read-out: % Bound Average, all conc (converted)
Description: (§1) Semi-automatic high-throughput determination of plasma protein binding using a 96-well plate filtrate assembly and fast liquid chromatography—tandem mass spectrometry. […] Stock solutions were prepared in DMSO at 100× higher concentrations. A 5% w/v solution of fetal bovine serum in phosphate buffered saline was prepared. An aliquot (10 μL of the stock solution was added to 990 μL of the PBS solution containing 5% fetal bovine serum in a glass tube which was then incubated in a shaking water bath at 37° C. for 30 min. 500 μL of the solution was then transferred to a centrifugal filter device (Amicon Ultra 0.5 ml # UFC503096) and centrifuged at 14 000g, 15 min. After this time, the filter units were removed and placed (upside down) in a collecting tube containing 477 μL, of PBS. The latter was centrifuged at 2000g, 2 min to obtain the retentate. […] J.

fetal bovine serum = experiment: as above; format: in vitro ADME; conditions: fetal bovine serum
Description: as §1

Icmt = biological target: T1, Icmt (Homo sapiens, UniProt O60725); experiment: Measurement of ICMT activity: incorporation of 3H from [3H]AdoMet into biotin-S-farnesyl L-cysteine, Sf9 membranes containing ICMT; format: biochemical; conditions: mean of two separate determinations; ±SD where more than two; read-out: IC50 Icmt inhibition
T1 construct: host or cells: Sf9 membranes
T1 sequence (O60725 whole entry, species assumed): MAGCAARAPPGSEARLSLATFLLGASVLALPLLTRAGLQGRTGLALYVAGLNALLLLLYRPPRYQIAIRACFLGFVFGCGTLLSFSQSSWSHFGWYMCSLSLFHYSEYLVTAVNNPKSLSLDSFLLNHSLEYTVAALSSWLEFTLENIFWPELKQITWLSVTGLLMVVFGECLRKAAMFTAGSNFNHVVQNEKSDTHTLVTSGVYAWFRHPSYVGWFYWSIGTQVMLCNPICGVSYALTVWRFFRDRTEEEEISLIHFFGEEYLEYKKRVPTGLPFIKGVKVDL
Description: (§2) Measurement of ICMT activity. Icmt activity was determined by following incorporation of ^3H from [^3H]AdoMet (Amersham Biosciences) into the small molecule substrate biotin-S-farnesyl L-cysteine (BFC). Inhibitors were first incubated at 37° C. for 20 min, with the Sf9 membranes containing ICMT. An assay mixture containing 4 μM BFC and 5 μM [^3H]AdoMet in 100 mM Hepes, pH 7.4 and 5 mM MgCl2 was added to initiate the reaction. Reactions were carried out at 37° C. for 20 min, and terminated by addition of 10% Tween 20 and streptavidin beads (GE Healthcare, 10 uL of packed beads suspended in 500 μL of 20 mM NaH2PO4, pH 7.4, containing 150 mM NaCl). The mixtures were mixed by gentle agitation overnight at 4° C. The beads were harvested by centrifugation in a tabletop microcentrifuge at 10,000 rpm for 5 min and washed three times with 500 μL of 20 mM NaH2PO4, pH 7.4, containing 150 mM NaCl. The beads were then suspended in the same buffer, transferred to scintillation vials, and radioactivity determined.
as §2, with “Activity.” for “activity.”

[2] = system: MDA-MB-231 human breast cells; experiment: Proliferation assay, CellTiter 96 AQueous One Solution (MTS); format: cell-based; conditions: for inhibition at 10 µM: read-out: inhibition in initial screen at a fixed concentration
Description: (§3) The MDA-MB-231 human breast cells were maintained at 37° C. with 5% CO2 in DMEM (Sigma) supplemented with 10% fetal bovine serum (FBS, Hyclone), 50 U/ml penicillin (Gibco), and 50 μg/ml streptomycin (Gibco). […] The relative number of the live cells was determined using the CellTiter® 96 AQueous One Solution Cell Proliferation Assay (Promega). Each condition was performed in triplicate, and data presented represent that obtained from at least two separate experiments.
as §3, with “to date were” for “represent that”, “one determination.” for “at least two separate experiments.”

[3] = read-out: % Bound Average (converted)
[4] = read-out: % Bound Run 1 (converted)
[5] = read-out: % Bound Run 2 (converted)
[6] = read-out: % Bound Run 3 (converted)
[7] = Homo sapiens, MDA-MB-231 cells, 72 h, mean of two separate determinations, ±SD where more than two, read-out: IC50 Antiproliferative activity
[8] = Homo sapiens, MDA-MB-231 cells, MTS colorimetric assay, 72 h, one determination, read-out: IC50
[9] = Homo sapiens, MDA-MB-231, 72 h, MDA-MB-231 cells, MTS colorimetric assay, 72 h, one determination
[10] = Homo sapiens, MDA-MB-231, 72 h, read-out: IC50 Antiproliferative activity, MDA-MB-231 cells, 72 h, mean of two separate determinations, ±SD where more than two

- fraction unbound at 30 min, 1 µM [1, 3]: 0.776
- fraction unbound at 30 min, 1 µM [1, 4]: 0.747
- fraction unbound at 30 min, 1 µM [1, 5]: 0.845
- fraction unbound at 30 min, 1 µM [1, 6]: 0.737
- fraction unbound at 30 min, 4 µM [1, 3]: 0.638
- fraction unbound at 30 min, 4 µM [1, 4]: 0.616
- fraction unbound at 30 min, 4 µM [1, 5]: 0.676
- fraction unbound at 30 min, 4 µM [1, 6]: 0.621
- fraction unbound at 30 min, 10 µM [1, 3]: 0.765
- fraction unbound at 30 min, 10 µM [1, 4]: 0.697
- fraction unbound at 30 min, 10 µM [1, 5]: 0.783
- fraction unbound at 30 min, 10 µM [1, 6]: 0.815
- fraction unbound at 30 min, 25 µM [1, 3]: 0.737
- fraction unbound at 30 min, 25 µM [1, 4]: 0.725
- fraction unbound at 30 min, 25 µM [1, 5]: 0.792
- fraction unbound at 30 min, 25 µM [1, 6]: 0.693
- fraction unbound at 30 min [1]: 0.729
SMILES: CCN(CC)Cc1cn(CC=C(C)C)c2ccc(-c3cccc(C)c3)cc12 [Compound J38G, N-ethyl-N-((1-(3-methylbut-2-enyl)-5-m-tolyl-1H-indol-3-yl)methyl)ethanamine]
- binding capacity compared with cysmethynil (fetal bovine serum): lower binding capacities than cysmethynil

- IC50 (Icmt): 1.2 µM
- IC50 [2, 7]: 20.7 µM
SMILES: CCCCCCCCn1cc(CCC(N)=O)c2cc(-c3cccc(C)c3)ccc21 [Compound 5-2, 3-(1-Octyl-5-m-tolyl-1H-indol-3-yl)propanamide]

SMILES: CCCCCCCCn1cc(CN2CCCC2)c2cc(F)ccc21 [6-9(5), 5-fluoro-1-octyl-3-(pyrrolidin-1-ylmethyl)-1H-indole]
- IC50 [2, 8]: 2.2 µM

SMILES: CCCCCCCCn1cc(CN(C)C)c2cc(F)ccc21 [6-9(1), 1-(5-fluoro-1-octyl-1H-indol-3-yl)-N,N-dimethylmethanamine]
- IC50 [2, 9]: 4.9 µM

- IC50 (Icmt): > 100 µM
- IC50 [2, 7]: > 100 µM
SMILES: CC(C)=CCn1ccc2cc(-c3cccc(C)c3)ccc21 [Compound 6-3, 1-(3-Methylbut-2-enyl)-5-m-tolyl-1H-indole]

SMILES: CCCCCCCCn1cc(CN2CCN(C)CC2)c2cc(F)ccc21 [6-9(6), 5-fluoro-3-((4-methylpiperazin-1-yl)methyl)-1-octyl-1H-indole]
- inhibition at 10 µM ([2]; Homo sapiens, MDA-MB-231 cells): ~45%

- fraction unbound at 30 min, 1 µM [1, 3]: 0.0962
- fraction unbound at 30 min, 1 µM [1, 4]: 0.107
- fraction unbound at 30 min, 1 µM [1, 5]: 0.0611
- fraction unbound at 30 min, 1 µM [1, 6]: 0.12
- fraction unbound at 30 min, 4 µM [1, 3]: 0.104
- fraction unbound at 30 min, 4 µM [1, 4]: 0.0557
- fraction unbound at 30 min, 4 µM [1, 5]: 0.124
- fraction unbound at 30 min, 4 µM [1, 6]: 0.131
- fraction unbound at 30 min, 10 µM [1, 3]: 0.0945
- fraction unbound at 30 min, 10 µM [1, 4]: 0.136
- fraction unbound at 30 min, 10 µM [1, 5]: 0.0943
- fraction unbound at 30 min, 10 µM [1, 6]: 0.0538
- fraction unbound at 30 min, 25 µM [1, 3]: 0.122
- fraction unbound at 30 min, 25 µM [1, 4]: 0.219
- fraction unbound at 30 min, 25 µM [1, 5]: 0.0636
- fraction unbound at 30 min, 25 µM [1, 6]: 0.0844
- fraction unbound at 30 min [1]: 0.104
- IC50 (Icmt): 1.5 µM
SMILES: CCCCCCCCn1cc(CC(N)=O)c2cc(-c3cccc(C)c3)ccc21 [cysmethynil, 2-(1-octyl-5-m-tolyl-1H-indol-3-yl) acetamide, reference compound]

SMILES: CCCCCCCCn1cc(C(N)=O)c2cc(-c3cccc(C)c3)ccc21 [Compound 5-1, 1-Octyl-5-m-tolyl-1H-indole-3-carboxamide]
- IC50 (Icmt): 30 µM
- IC50 [2, 10]: > 100 µM

- IC50 (Icmt): 69 µM
- IC50 [2, 7]: > 100 µM
SMILES: CC(C)=CCn1cc(CC(N)=O)c2cc(F)ccc21 [Compound 6-8, 2-(5-Fluoro-1-(3-methylbut-2-enyl)-1H-indol-3-yl)acetamide]

- IC50 (Icmt): 7 µM
- IC50 [2, 7]: 70 µM
SMILES: CCCCCCCCn1cc(CC(N)=O)c2cc(F)ccc21 [Compound 1-8, 2-(5-Fluoro-1-octyl-1H-indol-3-yl)acetamide]

- IC50 (Icmt): 2.1 µM
- IC50 [2, 7]: 4.7 µM
SMILES: CCCCCCCCn1cc(CC(=O)NC)c2cc(-c3cccc(C)c3)ccc21 [Compound 3-7, N-Methyl-2-(1-octyl-5-m-tolyl-1H-indol-3-yl)acetamide]

SMILES: CCCCCCCCn1cc(CN2CCOCC2)c2cc(F)ccc21 [6-9(4), 4-((5-fluoro-1-octyl-1H-indol-3-yl)methyl)morpholine]
- IC50 [2, 8]: 3.2 µM

SMILES: CCCCCCCCn1cc(CN2CCCCC2)c2cc(F)ccc21 [6-9(2), 5-fluoro-1-octyl-3-(piperidin-1-ylmethyl)-1H-indole]
- IC50 [2, 9]: 2.3 µM

SMILES: CCCCCCCCn1cc(CN2CCSCC2)c2cc(F)ccc21 [6-9(3), 4-((5-fluoro-1-octyl-1H-indol-3-yl)methyl)thiomorpholine]
- inhibition at 10 µM ([2]; Homo sapiens, MDA-MB-231 cells): ~45%

SMILES: CCCCCCCCn1cc(CC(=O)N2CCN(C)CC2)c2cc(-c3cccc(C)c3)ccc21 [Compound 3-6, 1-(4-Methylpiperazin-1-yl)-2-(1-octyl-5-m-tolyl-1H-indol-3-yl)ethanone]
- IC50 (Icmt): 1.7 ± 0.4 µM
- IC50 [2, 10]: 19.7 ± 0.9 µM

SMILES: CCCCCCCCn1cc(CN(CC)CC)c2cc(F)ccc21 [Compound 6-9, N-ethyl-N-((5-fluoro-1-octyl-1H-indol-3-yl)methyl)ethanamine]
- IC50 [2, 9]: 2.7 µM
- IC50 ([2]; MDA-MB-231 cells, MTS colorimetric assay, 72 h, one determination): 2 µM

SMILES: CC(C)=CCn1cc(CN2CCOCC2)c2cc(-c3cccc(C)c3)ccc21 [Compound 6-6, 4-((1-(3-methylbut-2-enyl)-5-m-tolyl-1H-indol-3-yl)methyl)morpholine]
- IC50 (Icmt): 2 ± 0.8 µM
- IC50 [2, 10]: 34 ± 3 µM
